Test [1] has as its system dextran sodium sulfate-induced chronic inflammatory bowel disease model. Particulars: once-daily doses of 3 and 10 mg/kg; mouse; cited from earlier work.
The target in a further test is T1, human GPR84 receptor (Homo sapiens, UniProt Q9NQS5).
T1 construct: host or cells: HEK293 cells, transient transfection
Briefly: Gαi biosensor BRET assay in transfected HEK293 cells (antagonism of GPR84 agonist ZQ-16). It counts as cell-based. The following applies: 200 nmol/L ZQ-16; for inhibition at 10 µM: code F = 10 μM. The text has this:
Background—The following assays can be used for determination of GPR84 activation in living HEK293 cells. The Gαi BRET biosensor (Gagnon et al., 2018; Gales et al., 2006. Nat Struct Mol Biol. 13, 778-86; Saulieres et al., 2012. Nat Chem Biol. 8, 622-30) allows to directly monitor GPR84-mediated activation of Gαi. The Gαi biosensor consists of a Rluc8-tagged Gαi2 subunit, a GFP10-tagged Gγ2 subunit, and an untagged Gβ1. Agonist stimulation and GPR84 activation triggers a physical separation between the RLuc8-Gαi donor and the GFP10-Gγ2 acceptor, resulting in a decrease in BRET signal whose amplitude is correlated to ligand efficacy (Gales et al., 2006). Moreover, signaling functions of GPCRs are tightly regulated by endocytosis, the targeting of receptors to endosomes and their sorting to lysosomes or recycling to the plasma membrane. The early endosomes (EEs) trafficking assay (Namkung et al., 2016. Nat Commun. 7, 12178) uses Rluc8-tagged GPR84 and Renilla GFP (rGFP) attached to the FYVE domain from human endofin/zinc finger FYVE domain-containing protein 16, which binds phosphatidylinositol 3-phosphate in EEs. Agonist stimulation of GPR84-Rluc8 leads to trafficking of the receptor to EEs, and ensuing increase of the donor concentration relative to the rGFP-FYVE acceptor anchored in the same cellular compartment, and thus results in an increase in BRET signal.
Plasmids—The cDNA clones for human GPR84 receptor, human Gαi2, Gβ1, and Gγ2 were obtained from the cDNA Resource Center (www.cdna.org). GFP10 (F64L, S147P, S202F and H231L variant of Aequorea victoria Green Fluorescent Protein) gBlocks gene fragments (Integrated DNA Technologies, IA) and linker were inserted in frame at the N-terminus of human Gγ2. Rluc8 (A55T, C124A, S130A, K136R, A143M, M185V, M253L, and S287L variant of the Renilla reniformis luciferase) gBlocks gene fragment was inserted with linkers in frame in between residues 91 and 92 of Gα2 or at the C-terminus of GPR84. The FYVE domain from human endofin (residues Q739 to K806) attached in frame at the C terminus of a humanized Renilla GFP (rGFP), were synthesized as gBlocks gene fragments.
Bioluminescence Resonance Energy Transfer (BRET) Measurement—HEK293 cells were transfected with GPR84-Rluc8 and rGFP-FYVE for the EEs trafficking biosensor or with GPR84, Gαi2-Rluc8, GFP10-Gγ2, and Gβ1 for the Gαi biosensor. The following day, transiently transfected cells were seeded in 96-well white clear bottom microplates coated with poly-D-lysine and left in culture for 24 hours. Cells were washed once with Tyrode's buffer (140 mmol/L NaCl, 1 mmol/L CaCl2, 2.7 mmol/L KCl, 0.49 mmol/L MgCl2, 0.37 mmol/L NaH2PO4, 5.6 mmol/L glucose, 12 mmol/L NaHCO3, and 25 mmol/L HEPES, pH 7.5) before performing assays in Tyrode's buffer. Test compounds were incubated with cells for 5 (Gui) or 15 (EEs) minutes at 37° C. before addition of 200 nmol/L of the GPR84 agonist ZQ-16 (2-(Hexylthio)-6-hydroxy-4(3H)-pyrimidinone) for 5 minutes at room temperature (Gui) or 30 minutes at 37° C. (EEs). The Rluc8 substrate coelenterazine 400A (Prolume, Lakeside, AZ) was added at a final concentration of 5 μmol/L and BRET readings were collected using an Infinite M1000 microplate reader (Tecan, Morrisville, NC). BRET^2 readings between Rluc8 and GFP10 or rGFP were collected by sequential integration of the signals detected in the 370 to 450 nm (Rluc8) and 510 to 540 nm (GFP10, rGFP) windows. The BRET signal was calculated as the ratio of light emitted by acceptor (GFP10, rGFP) over the light emitted by donor (Rluc8). The values were corrected to net BRET by subtracting the background BRET signal obtained in cells transfected with Rluc8 constructs alone. Ligand-promoted net BRET values were calculated by subtracting vehicle-induced net BRET from ligand-induced net BRET.
On the technique in general: In BRET a luciferase serves as donor, and the signal depends on an acceptor being close.

The source of these data is patent US20260028330A1, “HETEROARYL CARBOXAMIDE AND RELATED GPR84 ANTAGONISTS AND USES THEREOF” (LIMINAL BIOSCIENCES LIMITED, priority 2022, published 2026).

T1 sequence (Q9NQS5 whole entry): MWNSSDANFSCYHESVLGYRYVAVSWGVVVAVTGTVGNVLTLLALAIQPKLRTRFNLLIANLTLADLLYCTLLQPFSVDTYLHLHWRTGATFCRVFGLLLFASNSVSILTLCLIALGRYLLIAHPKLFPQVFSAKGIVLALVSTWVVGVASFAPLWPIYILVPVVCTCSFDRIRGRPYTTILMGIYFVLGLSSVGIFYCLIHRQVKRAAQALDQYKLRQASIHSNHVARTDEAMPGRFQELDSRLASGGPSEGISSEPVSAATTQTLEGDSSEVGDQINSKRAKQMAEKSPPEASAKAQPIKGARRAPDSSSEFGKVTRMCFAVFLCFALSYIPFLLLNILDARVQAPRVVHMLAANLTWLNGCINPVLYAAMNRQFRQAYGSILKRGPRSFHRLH

With `O=c1nc(OC[C@@H]2COCCO2)cc2n1CCc1cc(C#CC3CC3)ccc1-2` [GLPG1205], in test [1], the “disease activity index score” value is “reduced” and the neutrophil infiltration result was “reduced”. On to `Cc1ccc(C#CC2CC2)cc1N(C(=O)c1cn(CC2OCC3(CC3)CO2)nn1)C(C)C` [Compound I-86], for which the IC50 – broadly, the concentration that inhibits the measured activity by half – at human GPR84 receptor was ≤ 300 nM. Also, the inhibition (commonly the percentage by which the read-out fell short of the control) at 2 µM at human GPR84 receptor (HEK293, single concentration, code A = 2 μM) is > 75%. As for `Cc1cc(OCC(=O)N(C)C)ccc1C(=O)N(C)c1cc(C#CC2CC2)ccc1C` [Compound I-27], the inhibition at 10 µM at human GPR84 receptor (HEK293, single concentration) was ≤ 25%. Regarding `Cc1ccc(C#CC2CC2)c(F)c1N(C)C(=O)c1cn(CC2OCC3(CC3)CO2)nn1` [Compound I-37], on human GPR84 receptor, the IC50 was ≤ 300 nM. For the same compound, the inhibition at 10 µM at human GPR84 receptor (HEK293, single concentration) was > 75%. On to `CN(C)c1ccc(C#CC2CC2)cc1NC(=O)c1cn(CC2OCC3(CC3)CO2)nn1` [Compound I-102], for which the inhibition at 10 µM at human GPR84 receptor (HEK293, single concentration) was ≤ 25%.

In the case of `Cc1c(NC(=O)c2ccc(C#CC3CC3)cc2)nnn1CC1OCC2(CC2)CO1` [Compound I-62], the inhibition at 10 µM at human GPR84 receptor (HEK293, single concentration) is ≤ 25%. `CN(C(=O)c1cn(CC2OCC3(CC3)CO2)nn1)c1cc(C#CC2CC2)ccc1F` [Compound I-31] returned an IC50 at human GPR84 receptor of 1000 to 3000 nM. For the same compound, on human GPR84 receptor (HEK293, single concentration), the inhibition at 10 µM was > 75%.
